In ChEMBL document CHEMBL1139253, “Effect of methyl substitution in a ligand on the selectivity and binding affinity for a nucleobase: a case study with isoxanthopterin and its derivatives” (Bioorg Med Chem, 2009):

Key:
[1] = Binding affinity to target base A of 5'-TCC AGX GCA AC-3'/3'_AGG TCA CGT TG-5' 11 mer duplex DNA containing abasic site assessed as melting temperature at 150 uM by spectrophotometric analysis relative to control
[2] = Binding affinity to target base A of 5'-TCC AGX GCA AC-3'/3'_AGG TCA CGT TG-5' 11 mer duplex DNA containing abasic site assessed as melting temperature at 150 uM by spectrophotometric analysis
[3] = Binding affinity to target base G of 5'-TCC AGX GCA AC-3'/3'_AGG TCG CGT TG-5' 11 mer duplex DNA containing abasic site assessed as melting temperature at 150 uM by spectrophotometric analysis
[4] = Binding affinity to target base C of 5'-TCC AGX GCA AC-3'/3'_AGG TCC CGT TG-5' 11 mer duplex DNA containing abasic site assessed as melting temperature at 150 uM by spectrophotometric analysis relative to control
[5] = Binding affinity to target base T of 5'-TCC AGX GCA AC-3'/3'_AGG TCT CGT TG-5' 11 mer duplex DNA containing abasic site assessed as melting temperature at 150 uM by spectrophotometric analysis relative to control
[6] = Binding affinity to target base C of 5'-TCC AGX GCA AC-3'/3'_AGG TCC CGT TG-5' 11 mer duplex DNA containing abasic site at 10 uM by fluorescence quenching measurement
[7] = Binding affinity to target base G of 5'-TCC AGX GCA AC-3'/3'_AGG TCG CGT TG-5' 11 mer duplex DNA containing abasic site assessed as melting temperature at 150 uM by spectrophotometric analysis relative to control
[8] = Binding affinity to target base T of 5'-TCC AGX GCA AC-3'/3'_AGG TCT CGT TG-5' 11 mer duplex DNA containing abasic site at 10 uM by fluorescence quenching measurement
[9] = Binding affinity to target base C of 5'-TCC AGX GCA AC-3'/3'_AGG TCC CGT TG-5' 11 mer duplex DNA containing abasic site assessed as melting temperature at 150 uM by spectrophotometric analysis
[10] = Binding affinity to target base T of 5'-TCC AGX GCA AC-3'/3'_AGG TCT CGT TG-5' 11 mer duplex DNA containing abasic site assessed as melting temperature at 150 uM by spectrophotometric analysis

| ΔTm [1] | Tm [2] | Tm [3] | ΔTm [4] | ΔTm [5] | ΔTm [7] | Tm [9] | Tm [10] | SMILES | Activity [6] | Activity [8] |
| --- | --- | --- | --- | --- | --- | --- | --- | --- | --- | --- |
| 0.2 °C | 34 °C | 34.9 °C | 5.9 °C | 1.8 °C | 0.9 °C | 35.1 °C | 29.7 °C | Cn1c(=O)cnc2c(=O)[nH]c(N)nc21 | 72% |  |
| 1.8 °C | 35.6 °C | 34.9 °C | 0.4 °C | 6 °C | 0.9 °C | 29.6 °C | 33.9 °C | Cn1c(N)nc2[nH]c(=O)cnc2c1=O |  | 72.9% |

| SMILES | ΔTm [1] | Tm [2] | Tm [3] | ΔTm [4] | ΔTm [5] | ΔTm [7] | Tm [9] | Tm [10] | Activity [6] | Activity [8] |
| --- | --- | --- | --- | --- | --- | --- | --- | --- | --- | --- |
| Nc1nc2[nH]c(=O)cnc2c(=O)[nH]1 | 2.2 °C | 36 °C | 33.6 °C | 4.5 °C | 4.8 °C | -0.4 °C | 33.7 °C | 32.7 °C | 43.5% | 51.7% |
